Test results published in US20190374505A1, “METHODS AND COMPOSITIONS FOR THE TREATMENT OF NON-ALCOHOLIC STEATOHEPATITIS” (Vivus, Inc., priority 2016, published 2019).
“And” between values parts separate entries of the source, which are not always exact repeats. Equal entries are not always repeated.

Columns and labels:
Assay type in all cases: in vivo, mouse
[1] = tested on: STAM model mice (NASH); assay: STAM model mice: viability, body weight, food consumption, liver weight
Text: (§1) Having observed the improvements in markers that correlate with liver disease in patients treated with PHEN/TPM, animal studies in the STAM model for NAFLD/NASH were preformed to look more specifically at liver morphology and function following treatment with PHEN/TPM. The STAM model was selected because it allows a specific examination of the effects of drug treatment, in this example PHEN/TPM, on non-alcoholic steatohepatitis. The STAM model is a non-genetic animal model of human NASH with features of diabetic background, increased. NAFLD activity score (NAS), perivenular and pericellular fibrosis in Zone 3, and a high incidence of hepatocellular carcinoma (Fujii M. et al., Med. Mel. Morphol., 2013; 46: 141). The model is induced by a combination of chemical and dietary interventions in the mice. In this example, NASH was induced in 30 male mice by a single subcutaneous injection of 200 μg streptozotocin (STZ, Sigma-Aldrich, USA) solution 2 days after birth and feeding with a high fat diet (HFD, 57 kcal % fat, cat#: HFD32, CLEA Japan, Japan) after 4 weeks of age. The mice were treated with either vehicle, PHEN/TPM or Telmisartan.
(§2) Phentermine (PHEN) and Topiramate (TPM) were weighed and dissolved in distilled water and 0.5% methylcellulose, respectively. Telmisartan (MICARDIS®) was purchased from Boehringer Ingelheim GmbH (Germany) and suspended in milli-Q water. Vehicle, PHEN and TPM were orally administered in a volume of 5 mL/kg. Telmisartan was orally administered in a volume of 10 mL/kg. PHEN was administered at a dose of 15 mg/kg once daily. TPM was administered at a dose of 100 mg/kg once daily. Telmisartan was administered at a dose of 5 mg/kg once daily.
C57BL16 mice (15-day-pregnant female) were obtained from Japan SLC (Japan) and were housed in accordance with the Japanese Pharmacological Society Guidelines for Animal Use. The animals were maintained in a SPF facility under controlled conditions of temperature (23±2° C.), humidity (45±10%), lighting (12-hour artificial light and dark cycles; light from 8:00 to 20:00) and air exchange. A high pressure was maintained in the experimental room to prevent contamination of the facility. The animals were housed in TPX cages (CLEA Japan) with a maximum of 4 mice per cage. Sterilized Paper-Clean (Japan SLC) was used for bedding and replaced once a week.
Sterilized solid HFD was provided ad libitum, being placed in a metal lid on the top of the cage. Pure water was provided ad libitum from a water bottle equipped with a rubber stopper and a sipper tube. Water bottles were replaced once a week, cleaned and sterilized in an autoclave and reused. Mice were identified by numbers engraved on earrings. Each cage was labeled with a specific identification code.
(§3) The three treatment groups were as follows: Group 1: Vehicle: 10 NASH mice were orally administered vehicle [distilled water and 0.5% methylcellulose in a volume of 5 mL./kg, respectively] once daily from 5 to 11 weeks of age. Group 2: PHEN/WM. 10 NASH mice were orally administered distilled water supplemented with PHEN at a dose of 15 mg/kg, and 0.5% methylcellulose supplemented with TPM at a dose of 100 mg/kg once daily from 5 to 11 weeks of age. Group 3: Telmisartan. […]
The viability, clinical signs and behavior were monitored daily. […]
The body weight of each mouse was recorded daily and food consumption was recorded 3 times weekly during the treatment period. […]

[2] = tested on: STAM model mice (NASH); assay: STAM model mice: blood biochemistry and liver triglyceride content; settings: day of sacrifice, mean ± SD
Text: as §1
as §2, with “TPM was administered at a dose of 100 mg/kg once daily. Telmisartan was administered at a dose of 5 mg/kg once daily.” left out
Measurement of blood biochemistry. Non-fasting blood glucose was measured in whole blood using LIFE CHECK (EIDrA, Japan). […] The plasma ALT (alanine aminotransferase) and AST (aspartate aminotransferase) levels were measured by FUJI DRI CHEM 7000 (FujiFilm, Japan) Measurement of liver triglyceride content Liver total lipid-extracts were obtained by Folch's method (Folch J. el al., J. Bioi. Chern. 1957; 226: 497). […] Liver triglyceride levels were measured by Triglyceride E-test (Wako Pure Chemical Industries, Japan). […]

[3] = tested on: STAM model mice (NASH); assay: STAM model mice: liver histopathology (HE/NAS, Sirius red, Oil red, F4/80)
Text: as §1, §2
Histopathology analysis. For HE staining, sections were cut from paraffin blocks of liver tissue prefixed in Bouin's solution and stained with Lillie-Mayers Hematoxylin (Muto Pure Chemicals, japan) and eosin solution (Wako Pure Chemical industries). NAS was calculated according to the criteria of Kleiner (Kleiner D E. et al., Hepatology, 2005; 41: 1313). To visualize collagen deposition, Bouin's fixed liver sections were stained using picro-Sirius red solution (Waldeck, Gelman)). To visualize macro- and microvesicular fat, sections were cut from frozen liver tissues embedded in Tissue-Tek O.C.T. compound (Sakura Finetek Japan, Japan), and stained with Oil Red 0 (SigmaAldrich). For immunohistochemistry, sections were cut from frozen liver tissues embedded in Tissue-Tek O.C.T. compound and fixed in acetone. Endogenous peroxidase activity was blocked using 0.03% H2O2 for 5 minutes, followed by incubation with Block Ace (Dainippon Sumitomo Pharma, Japan) for 10 minutes. The sections were incubated with a 200-fold dilution of anti-F4/80 antibody (BMA Biomedicals, Switzerland) 1 hour at room temperature. After incubation with secondary antibody (HRP-Goat anti-rat antibody, Invitrogen, USA), enzyme-substrate reactions were performed using 3, 3′-diaminobenzidine/H202 solution (Nichirei, Japan). For quantitative analyses of fibrosis, inflammation and fat deposition areas, bright field images of Sirius red-stained, F4/80-immunostained and oil red-stained sections were captured around the central vein using a digital camera (DFC280; Leica, Germany) at 200-fold magnification, and the positive areas in 5 fields/section were measured using ImageJ software (National Institute of Health, USA).
as §3

[4] = tested on: liver mRNA of TNF-α, TIMP-1, Alpha-SMA, MMP-9, collagen type 1, MCP-1; assay: STAM model mice: liver gene expression analysis (real-time PCR, normalized to 36B4); settings: vehicle average = 1.0, mean ± SD
Text: as §1, §2
Total RNA was extracted from liver samples using RNAiso (Takara Bio, Japan) and SV total RNA isolation kit (Promega, USA) according to the manufacturer's instructions. One/1 g of RNA was reverse-transcribed using a reaction mixture containing 4.4 mM MgCb (F. Hoffmann-La Roche, Switzerland), 40 U RNase inhibitor (Toyobo, Japan), 0.5 mM dNTP (Promega), 6.28 µM random hexamer (Promega), 5× first strand buffer (Promega), 10 mM dithiothreitol (Invitrogen, USA) and 200 U MMLV-RT (Invitrogen) in a final volume of 20 IIL. The reaction was carried out for 1 hour at 37° C., followed by 5 minutes at 99° C. Real-time PCR was performed using real-time PCR DICE and SYBR premix Tag (Takara Bio). To calculate the relative mRNA expression level, the expression of each gene was normalized to that of reference gene 36B4 (gene symbol: RplpO). To express data as fold-change relative to the Vehicle-control group, the data were standardized so that average values of the Vehicle group become 1.0.
The three treatment groups were as follows: Group 1: Vehicle: 10 NASH mice were orally administered vehicle [distilled water and 0.5% methylcellulose in a volume of 5 mL./kg, respectively] once daily from 5 to 11 weeks of age. Group 2: PHEN/WM. 10 NASH mice were orally administered distilled water supplemented with PHEN at a dose of 15 mg/kg, and 0.5% methylcellulose supplemented with TPM at a dose of 100 mg/kg once daily from 5 to 11 weeks of age. Group 3: Telmisartan. 10 NASH mice were orally administered pure water supplemented with Telmisartan at a dose of 5 mg/kg once daily from 5 to 11 weeks of age.
The values in Table 7 were calculated by dividing Target by 36B4 for each animal. An average was calculated in the vehicle group. The initial calculations of Target/36B4 was divided by the vehicle average so the vehicle average becomes 1.0. This second Target/36B4 represents a fold-change of Target gene relative to the vehicle average.

[5] = day of sacrifice, mean ± SD, PHEN 15 + TPM 100 mg/kg (n=6), Telmisartan 5 mg/kg (n=8)

CCCc1nc2c(C)cc(-c3nc4ccccc4n3C)cc2n1Cc1ccc(-c2ccccc2C(=O)O)cc1 [Telmisartan]
Mean body weight reduced compared to the Vehicle group ([1]; day of sacrifice): 11.4% | Liver-to-body weight ratio ([1]; day of sacrifice, mean ± SD): 6.2 ± 1.1% | Body weight [1, 5]: 18.7 g and 18.7 ± 1.7 g | Liver weight [1, 5]: 1156 ± 210 mg | Mice found dead before reaching week 11 ([1]; treatment period 5 to 11 weeks of age, oral once daily, PHEN 15 mg/kg + TPM 100 mg/kg, Telmisartan 5 mg/kg): Two out of 10 | Plasma ALT [2]: 39 U/L and 39 ± 34 U/L | Plasma AST [2]: 229 U/L and 229 ± 176 U/L | Whole blood glucose ([2]; non-fasting): 768 mg/dL and 768 ± 199 mg/dL | Fibrosis area (Sirius-red) ([3]; mean ± SD): 0.81% and 0.81 ± 0.39% | Inflammation area (F4/80) ([3]; mean ± SD): 1.48 ± 0.76% | Number of mice with Steatosis score 0 ([3]; score 0 = <5%): 2 | Number of mice with Lobular Inflammation score 0 ([3]; score 0 = No foci): 2 | Number of mice with Steatosis score 1 ([3]; score 1 = 5-33%): 6 | Number of mice with Lobular Inflammation score 1 ([3]; score 1 = <2 foci/200x): 2 | Number of mice with Hepatocyte Ballooning score 1 ([3]; score 1 = Few balloon cells): 4 | Number of mice with Lobular Inflammation score 2 ([3]; score 2 = 2-4 foci/200x): 4 | Number of mice with Hepatocyte Ballooning score 2 ([3]; score 2 = Many cells/prominent ballooning): 4 | Alpha-SMA/36B4 mRNA expression, fold change relative to Vehicle group [4]: 0.54 and 0.54 ± 0.40 | Collagen Type 1/36B4 mRNA expression, fold change relative to Vehicle group [4]: 0.80 and 0.80 ± 0.11 | MCP-1/36B4 mRNA expression, fold change relative to Vehicle group [4]: 0.44 and 0.44 ± 0.23 | MMP-9/36B4 mRNA expression, fold change relative to Vehicle group [4]: 1.21 and 1.21 ± 0.36 | TIMP-1/36B4 mRNA expression, fold change relative to Vehicle group [4]: 0.66 and 0.66 ± 0.46 | TNF-α/36B4 mRNA expression, fold change relative to Vehicle group [4]: 0.75 and 0.75 ± 0.17
